The text below walks through data of US11584766B2, “Nicotinamide phosphoribosyltransferase inhibitors and methods for use of the same” (THE TRUSTEES OF INDIANA UNIVERSITY, priority 2018, dated 2023).

Where a name gives a salt, the structure may show the parent alone.

For orientation: IC50 means the midpoint of a concentration-inhibition curve. By inhibition is commonly meant the drop in the measured response relative to a control, in per cent. Read a high inhibition as a strong effect.

The target in one series is T1, NAMPT (Homo sapiens, UniProt P43490).
T1 construct: purchased MBL International Corporation (CycLex NAMPT Colorimetric Assay Kit Ver.2)
T1 sequence (P43490 whole entry): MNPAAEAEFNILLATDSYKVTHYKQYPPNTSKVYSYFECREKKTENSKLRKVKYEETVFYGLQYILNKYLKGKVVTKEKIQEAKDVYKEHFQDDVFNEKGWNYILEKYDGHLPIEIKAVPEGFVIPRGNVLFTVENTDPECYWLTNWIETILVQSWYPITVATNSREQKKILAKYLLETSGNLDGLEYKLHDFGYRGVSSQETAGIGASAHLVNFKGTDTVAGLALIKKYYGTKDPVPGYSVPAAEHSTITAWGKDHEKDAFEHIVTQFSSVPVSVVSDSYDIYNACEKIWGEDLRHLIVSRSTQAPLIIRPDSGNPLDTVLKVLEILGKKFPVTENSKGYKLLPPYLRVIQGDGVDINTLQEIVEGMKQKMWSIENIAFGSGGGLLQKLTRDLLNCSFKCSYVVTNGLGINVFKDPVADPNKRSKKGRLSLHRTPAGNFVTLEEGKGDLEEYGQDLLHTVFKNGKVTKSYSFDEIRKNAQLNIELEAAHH
The experiment in a line: CycLex NAMPT Colorimetric Assay. It is filed as biochemical. The following applies: for IC50: CycLex NAMPT Colorimetric Assay Kit, read-out: NAMPT Inhibition IC50. The procedure: The ability of the compounds of the disclosure to inhibit NAMPT was determined using the CycLex NAMPT Colorimetric Assay Kit Ver.2 by MBL International Corporation.
The assay detects NAMPT activity in recombinant NAMPT or endogenous NAMPT immunoprecipiated from cell lysates according to the scheme shown in FIG. 3. In this method, NAMPT converts nicotinamide to nicotinamide mononucleotide (“NMN”). Subsequently, nicotinamide mononucleotide adenylyltransferase 1 (“NMNAT1”) converts NMN to NAD^+. Resultant NAD^+ can be measured by enzyme cycling reaction using alcohol dehydrogenase (“ADH”), diaphorase and WST-1.

Series [1] deals with human pulmonary artery smooth muscle cells (hPASMCs). Put plainly: BrdU Assay (proliferation), hPASMC. The series is classed as cell-based. The following applies: Homo sapiens. The procedure: (§1) The effect of the compounds disclosed herein on the viability, proliferation, and apoptosis of human pulmonary artery endothelial cells (“hPAECs,”) and human pulmonary artery smooth muscle cells (“hPASMCs”) was determined using the PrestoBlue Assay (viability), CYQuant Direct or BrdU Assay (proliferation) or Tunel Assay (apoptosis), as described below.
(§2) HPAECs (1×10^4 cells/well) or HPASMCs (2.5×10^3 cells/well) were seeded in 96-well plates for 24 h in full-serum tissue culture medium. The full medium was removed prior to treatment with a NAMPT inhibitor prepared in medium containing 0.1% serum. NAMPT inhibitors were solubilized in 100% DMSO, unless otherwise indicated, prior to preparation of the dose response curve in 100% DMSO. The treatment dose response curve was diluted in 0.1% serum tissue culture medium and administered to cells for 24 h. DMSO diluted in the same medium was used as the vehicle control. Cell viability was measured according to the manufacturer's protocol by adding the PrestoBlue Cell Viability Reagent (ThermoFisher Scientific, #A13261) to cells for 20 min at 37° C. in a tissue culture incubator, followed by reading fluorescence at ex560/em590. Cell proliferation was measured, either in the same wells or in separate experiments, by adding the CyQuant Direct Confirmation Reagent (ThermoFisher Scientific, #C35011) for 1 h at 37° C. in a tissue culture incubator, followed by reading fluorescence at ex485/em538. Proliferation was also measured, in separate experiments, using the BrdU Cell Proliferation Assay (Calbiochem, #QIA58). After treatment with a NAMPT inhibitor for 24 h, BrdU was added to the cells in the presence of the inhibitor, for an additional 24 h and BrdU incorporation was detected according to the manufacturer's protocol. Apoptosis was analyzed by seeding cells (1×10^5 cells/well) in 6-well plates for 24 h in full-serum medium, followed by treatment with a NAMPT inhibitor for 24 h in full-serum medium. Tunel staining and detection was performed using the Tunel Assay Kit (Abcam, #ab66110) according to the manufacturer's protocol.

In series [2] the test system is human pulmonary artery endothelial cells (hPAECs). Put plainly: BrdU Assay (proliferation), hPAEC. It is filed as cell-based. Particulars: dose response, FIG. 6. The procedure:
as §1, §2

For series [3] the test system is unchanged. Put plainly: PrestoBlue Assay (viability), hPAEC. It is filed as cell-based. The following applies: dose response, FIG. 4. The method, then:
as §1, §2

Series [4] in a line: Solubility (2.5% v/v DMSO/water). It is filed as physicochemical.
The subject of series [5] is human pulmonary artery endothelial cells (hPAECs). The experiment in a line: CyQUANT Direct Assay (proliferation), hPAEC. The series is classed as cell-based. The following applies: dose response, FIG. 5. The method, then: as §1, §2

Take `[2H][C@@H](C(=O)NCCCCCCn1ccc2cc(OC)ccc21)[C@@H]([2H])c1cccnc1` [5.2.3f D2]: the IC50 on NAMPT worked out at 665 nM. Take `O=C(CCc1cccnc1)NCCCCCCn1c(-c2ccccc2)cc2ccccc21`: the IC50 on NAMPT was approximately 10000 nM. Still for that read-out and setting: then `CC[Si]1(CC)c2ccccc2N(C(=O)CCCCCNC(=O)CCc2cccnc2)C1C` (stereo not shown) [DGMS-RAR-5H2], with 368 nM. `O=C(CCc1cccnc1)NCCCCCCn1ccc2cc(O)ccc21` [5.2.3t H2]: the IC50 at NAMPT amounted to 1200 nM. Same read-out and setting: then `[2H][C@@H](C(=O)NCCCCCCn1ccc2cc(OCc3ccccc3)ccc21)[C@@H]([2H])c1cccnc1` (relative stereo) [DGMS-RAR-6 D2], with 233 nM.

In series [1], `CC1Cc2ccccc2N1C(=O)CCCCCNC(=O)/C=C/c1cccnc1` (stereo not shown) yielded an IC50 of 51.9 µM. In addition, the “effect on HPAEC proliferation (BrdU assay)” value in series [2] is “dose-dependently decrease cell proliferation”. In the case of `O=C(CCc1cccnc1)NCCCCCCn1ccc2cc(OCc3ccccc3)ccc21` [DGMS-RAR-6 H2], at NAMPT, the IC50 was determined as 582 nM. On the same count and under the same terms, next, `Cc1cc2ccccc2n1CCCCCCNC(=O)CCc1cccnc1`: 970 nM. In the case of `CC[Si]1(CC)c2ccccc2N(C(=O)CCCCCNC(=O)/C=C/c2cccnc2)C1C` (stereo not shown) [DGMS-RAR-5], the IC50 in series [1] was 102 µM; on NAMPT, 11 nM. Besides, the “effect on HPAEC proliferation (BrdU assay)” value in series [2] is on record as “dose-dependently decrease cell proliferation”. For `Cc1ccc2c(ccn2CCCCCCNC(=O)CCc2cccnc2)c1`, on NAMPT, the concentration for half-maximal inhibition (IC50) turned out to be 1530 nM. Still for that read-out and setting: then `CC1Cc2ccccc2N1CCCCCCNC(=O)/C=C/c1cccnc1` (stereo not shown) [DGMS-RAR-1•HCl], with 47 nM. With `O=C(/C=C/c1cccnc1)NCCCCCCn1ccc2cc(OCc3ccccc3)ccc21` [DGMS-RAR-6•HCl], at NAMPT, 10 µM produced 97% inhibition and the concentration for half-maximal inhibition (IC50) is approximately 100 nM.

As for `[2H][C@@H](C(=O)NCCCCCC(=O)N1c2ccccc2[Si](CC)(CC)C1C)[C@@H]([2H])c1cccnc1` (stereo partly shown) [DGMS-RAR-5D2], the concentration for half-maximal inhibition (IC50) at NAMPT is 668 nM. On the same count and under the same terms, next, `CC[Si]1(CC)c2ccccc2N(C(=O)CCCCCNC(=O)/C=C/c2cccnc2)C1C` (stereo not shown) [DGMS-RAR-5•OTs]: 10.3 nM.

For the compound `O=C(/C=C/c1cccnc1)NCCCCCCn1ccc2cccnc21`, the IC50 on NAMPT amounted to 1540 nM. Consider `[2H][C@@H](C(=O)NCCCCCC(=O)N1c2ccccc2CC1C)[C@@H]([2H])c1cccnc1` (stereo partly shown) [DGMS-RAR-1 D2], for which, on NAMPT, the IC50 worked out at 632 nM. Turning to `Cc1ccc2c(ccn2CCCCCCNC(=O)/C=C/c2cccnc2)c1` [5.2.3g], at NAMPT, the IC50 came out at 170 nM. Regarding `COCCOCCOCCOCCOC(=O)CC1CN(C(=O)CCCCCNC(=O)/C=C/c2cccnc2)c2ccccc21` (stereo not shown) [DGMS-RAR-PEG3], in series [3], the “effect on HPAEC viability” value was “dose-dependently decrease cell viability”. In addition, the IC50 on NAMPT was found to be 21 nM. In addition, the “Solubility (2.5% v/v DMSO/water)” value in series [4] is “Good”. Also, the “effect on HPAEC proliferation (CYQuant Direct assay)” value in series [5] is recorded as “dose-dependently decrease cell proliferation”. For `O=C(/C=C/c1cccnc1)NCCCCCCN1c2ccccc2CCc2cc(Br)ccc21` [5.2.3d], the half-maximal inhibitory concentration (IC50) at NAMPT was determined as 71 nM. Regarding `O=C(/C=C/c1cccnc1)NCCCCCCn1c(-c2ccccc2)cc2ccccc21` [DGMS-RARI•HO3SMe], on NAMPT, the “% NAMPT Inhibition at 10 μM” value worked out at 98% and the concentration for half-maximal inhibition (IC50) was 12 nM.

Take `COCCOCCOCCOCCOC(=O)Cc1cn(CCCCCCNC(=O)/C=C/c2cccnc2)c2ccccc12` [DGMS-RAR-PEG2]: the “effect on HPAEC viability” value in series [3] is on record as “dose-dependently decrease cell viability”. Also, at NAMPT, the inhibition at 10 µM is 97% and the IC50 came out at 21 nM. Further, in series [4], the “Solubility (2.5% v/v DMSO/water)” value is reported as “Moderate”. As for `O=C(CCc1cccnc1)NCCCCCCN1c2ccccc2CCc2ccccc21` [DGMS-RAR-5.2.3c H2], the IC50 on NAMPT worked out at 100 nM. The same measure, in the same setting: then `O=C(O)CC1CN(C(=O)CCCCCNC(=O)/C=C/c2cccnc2)c2ccccc21` (stereo not shown) [DGMS-RAR-PEG3A], with 1050 nM. As for `O=C(/C=C/c1cccnc1)NCCCCCCn1c(-c2ccccc2)cc2cc(O)c(O)cc21`, the concentration for half-maximal inhibition (IC50) on NAMPT worked out at 124 nM. Still for that read-out and setting: then `[2H][C@@H](C(=O)NCCCCCC(=O)N1C[Si](C)(C)c2ccccc21)[C@@H]([2H])c1cccnc1` [DGMS-RAR-4D2], with 2310 nM; and `CC1Cc2ccccc2N1C(=O)CCCCCNC(=O)/C=C/c1cccnc1` (stereo not shown) [DGMS-RAR-1•HO3SMe], with 34 nM.

For the compound `[2H][C@@H](C(=O)NCCCCCCn1c(-c2ccccc2)cc2ccccc21)[C@@H]([2H])c1cccnc1`, the IC50 at NAMPT was 92 nM.

`CCOC(=O)Cc1cn(CCCCCCNC(=O)/C=C/c2cccnc2)c2ccccc12` [DGMS-RAR-PEG2E]: at NAMPT, the inhibition at 10 µM came out at 99% and the 50% inhibitory concentration (IC50) is less than 10 nM.

For the compound `CC[Si]1(CC)c2ccccc2N(C(=O)CCCCCNC(=O)/C=C/c2cccnc2)C1C` (stereo not shown) [DGMS-RAR-5•O3SMe], at NAMPT, testing at 10 µM gave an inhibition of 99% and the concentration for half-maximal inhibition (IC50) was 14 nM. In series [4], the “Solubility (2.5% v/v DMSO/water)” value is on record as “Good”. Consider `O=C(O)Cc1cn(CCCCCCNC(=O)/C=C/c2cccnc2)c2ccccc12` [DGMS-RAR-PEG2A], for which, at NAMPT, the inhibition at 10 µM came to 98% and the IC50 is 40 nM.

With `COc1ccc2c(ccn2CCCCCCNC(=O)CCc2cccnc2)c1`, the half-maximal inhibitory concentration (IC50) at NAMPT stood at 674 nM. For the compound `COC(=O)Cc1cn(CCCCCCNC(=O)/C=C/c2cccnc2)c2ccccc12` [5.2.3h], at NAMPT, the 50% inhibitory concentration (IC50) was found to be 100 nM. Still for that read-out and setting: then `O=C(/C=C/c1cccnc1)NCCCCCCn1ccc2cc(OCc3ccccc3)ccc21` [DGMS-RAR-6], with 1010 nM; and `C[Si]1(C)CN(C(=O)CCCCCNC(=O)CCc2cccnc2)c2ccccc21` [DGMS-RAR-4H2], with 1590 nM; and `O=C(/C=C/c1cccnc1)NCCCCCCn1ccc2cnccc21` [5.2.3k], with 110 nM.

As to `O=C(/C=C/c1cccnc1)NCCCCCCn1c(-c2ccccc2)cc2cc3c(cc21)OCO3`, the IC50 on NAMPT came to 386 nM. Take `C[Si]1(C)CN(C(=O)CCCCCNC(=O)/C=C/c2cccnc2)c2ccccc21` [DGMS-RAR-4]: at NAMPT, the IC50 is 141 nM. `O=C(/C=C/c1cccnc1)NCCCCCCN1c2ccccc2CC1c1ccccc1` (stereo not shown) [5.2.3e]: at NAMPT, the IC50 was determined as 26 nM. For `O=C(CCc1cccnc1)NCCCCCCn1ccc2ccncc21` [5.2.3b H2], the half-maximal inhibitory concentration (IC50) on NAMPT stood at 2140 nM. As to `O=C(/C=C/c1cccnc1)NCCCCCCn1ccc2cc(OCc3ccccc3)ccc21` [DGMS-RAR-6•HO3SMe], on NAMPT, the “% NAMPT Inhibition at 10 μM” value turned out to be 97% and the IC50 was approximately 100 nM. `COCCOCCOCCOCCOC(=O)CCC(=O)Oc1ccc2c(ccn2CCCCCCNC(=O)/C=C/c2cccnc2)c1` [DGMS-RAR-mPEG3]: on NAMPT, the inhibition at 10 µM was 97% and the IC50 was determined as 20 nM. In addition, the “Solubility (2.5% v/v DMSO/water)” value in series [4] is “good”.

Regarding `O=C(/C=C/c1cccnc1)NCCCCCC(=O)N1CCCCc2ccccc21` [DGMS-RAR-3], on NAMPT, the IC50 was 72 nM.

In the case of `Cl.O=C(/C=C/c1cccnc1)NCCCCCCn1c(-c2ccccc2)cc2ccccc21` [DGMS-RARI•HCl], on NAMPT, the “% NAMPT Inhibition at 10 μM” value came to 98% and the IC50 worked out at 32 nM. For the same compound, the “Solubility (2.5% v/v DMSO/water)” value in series [4] is “Moderate”. Consider `O=C(CCc1cccnc1)NCCCCCCn1ccc2cccnc21`, for which, on NAMPT, the IC50 worked out at 2400 nM. Same read-out and setting: next, `O=C(/C=C/c1cccnc1)NCCCCCCn1ccc2cc(I)ccc21` [5.2.3l]: 155 nM. Still for that read-out and setting: then `CCOC(=O)CC1CN(C(=O)CCCCCNC(=O)/C=C/c2cccnc2)c2ccccc21` (stereo not shown) [DGMS-RAR-PEG3E], with 44 nM; and `O=C(/C=C/c1cccnc1)NCCCCCCn1ccc2ccncc21` [5.2.3b], with 230 nM; and `CC1Cc2ccccc2N1C(=O)CCCCCNC(=O)/C=C/c1cccnc1` (stereo not shown) [DGMS-RAR1], with 49 nM. Same read-out and setting: next, `[2H][C@@H](C(=O)NCCCCCC(=O)N1CCc2cc(O)ccc21)[C@@H]([2H])c1cccnc1`: 189 nM; `Cc1cc2ccccc2n1CCCCCCNC(=O)/C=C/c1cccnc1` [5.2.3a]: 82 nM.
